We go through 38 molecules from patent publication US20040229848A1, “Glutaminyl based DP IV-inhibitors” (priority 2003, published 2004).

Chain of DPIV (P27487 whole entry): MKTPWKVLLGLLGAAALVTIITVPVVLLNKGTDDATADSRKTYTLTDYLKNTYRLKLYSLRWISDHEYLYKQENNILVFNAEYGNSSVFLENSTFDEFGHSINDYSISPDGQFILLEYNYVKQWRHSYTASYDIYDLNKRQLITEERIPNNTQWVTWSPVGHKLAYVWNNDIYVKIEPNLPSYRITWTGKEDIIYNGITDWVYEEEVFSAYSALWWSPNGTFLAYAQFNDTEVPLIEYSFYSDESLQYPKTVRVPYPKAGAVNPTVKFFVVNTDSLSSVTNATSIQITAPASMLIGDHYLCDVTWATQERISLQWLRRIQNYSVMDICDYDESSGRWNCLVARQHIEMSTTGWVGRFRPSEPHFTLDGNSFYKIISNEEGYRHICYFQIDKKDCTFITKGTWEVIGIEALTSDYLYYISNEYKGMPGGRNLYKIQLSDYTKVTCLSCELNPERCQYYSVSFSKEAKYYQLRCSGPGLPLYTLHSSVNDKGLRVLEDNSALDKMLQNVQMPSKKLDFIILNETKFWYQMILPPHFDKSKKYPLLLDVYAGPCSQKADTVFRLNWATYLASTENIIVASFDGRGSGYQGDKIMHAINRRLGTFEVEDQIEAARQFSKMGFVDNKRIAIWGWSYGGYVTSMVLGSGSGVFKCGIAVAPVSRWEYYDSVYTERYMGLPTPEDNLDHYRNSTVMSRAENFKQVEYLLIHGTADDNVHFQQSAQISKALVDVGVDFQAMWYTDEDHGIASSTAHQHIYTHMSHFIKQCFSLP

One series addresses DPIV (Homo sapiens, UniProt P27487). Put plainly: DPIV activity assay, hydrolysis of H-Gly-Pro-pNA. Particulars: 0.4 mM H-Gly-Pro-pNA, 0.65 mU DPIV, 0.04 M Hepes pH 7.6, 30° C.; 2.6*10^−5 M glutaminyl thiazolidine.
Description: All assays were performed at 30° C. using the Sunrise reader for microplates (TECAN). […] Additionally, samples contained either
a) 2.6*10^−5 M glutaminyl thiazolidine (open circles), or
Otherways, reactions were started by addition of a mixture of H-Gly-Pro-pNA and glutaminyl thiazolidine. Reactions were followed by monitoring the decrease in absorbance at 400 nm.
`NC(=O)CC[C@H](N)C(=O)N1CCSC1` [glutaminyl thiazolidine]: the “inhibition of DPIV (hydrolysis of H-Gly-Pro-pNA)” value is reported as “competitive inhibition”.
Consider `O=C1CCC(C(=O)N2CCSC2)N1` (centres unmarked) [pyro-glutaminyl-thiazolidine], for which the “inhibition of DPIV (hydrolysis of H-Gly-Pro-pNA)” value is “not active”.

The target in the next series is glutaminyl cyclase (QC) (Homo sapiens, UniProt Q16769).
Chain of glutaminyl cyclase (QC) (Q16769 29-361): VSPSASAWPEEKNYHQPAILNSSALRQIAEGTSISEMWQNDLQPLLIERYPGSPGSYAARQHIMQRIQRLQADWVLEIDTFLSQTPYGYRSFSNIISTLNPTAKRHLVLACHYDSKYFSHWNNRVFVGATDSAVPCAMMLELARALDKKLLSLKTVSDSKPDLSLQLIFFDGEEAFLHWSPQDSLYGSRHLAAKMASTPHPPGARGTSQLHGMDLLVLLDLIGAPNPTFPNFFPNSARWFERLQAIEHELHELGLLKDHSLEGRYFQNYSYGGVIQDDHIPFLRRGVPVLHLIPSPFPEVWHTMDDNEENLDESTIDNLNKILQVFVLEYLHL
Assay: not given
Details: not given
As for `NC(=O)CC[C@H](N)C(=O)N1CCSC1` [glutaminyl thiazolidine], the “degradation by glutaminyl cyclase” value was “degraded to the pyro-glutaminyl-thiazolidine” and the “half-life in the presence of QC” value was “reduced”.

The same series, now with this note: case (c): 2.6*10^−5 M glutaminyl thiazolidine, 54 mU QC and 0.4 mM inhibitor.
On to `c1ccc2[nH]cnc2c1` [benzimidazole], for which the “reaction rate of H-Gly-Pro-pNA hydrolysis after addition of the QC inhibitor” value is “the reaction rate goes down as low as in case (a)”.

In a further series the target is human QC (Homo sapiens, UniProt Q16769). The series can be described thus: Inhibition of the human QC (glutaminyl cyclase) catalyzed reaction, Ki determination.
Chain of human QC (Q16769 29-361): as above
Details: not given
With `Cn1ccnc1` [1-methylimidazole], the affinity corresponds to a Ki of 30 ± 1 µM.
Turning to `COC(=O)[C@H](C)NC(=O)C1CCC(Cn2ccnc2)N1` (some centres unmarked) [2-[(5-imidazol-1-ylmethyl-pyrrolidine-2-carbonyl)-amino]-propionic acid methyl ester], the affinity, expressed as Ki, was 32.2 ± 0.7 µM.
As to `Cc1c(C(=O)CCn2ccnc2)sc2ccccc12` [3-(1H-imidazol-1-yl)-1-(3-methylbenzo[b]thiophene-2-yl)propan-1-one], the affinity, expressed as Ki, was 2.5 ± 0.1 µM.
Turning to `O=C1CNC(=S)N1CCCn1ccnc1` [3-[3-(1H-imidazol-1-yl)propyl]-2-thioxoimidazolidin-4-one], the Ki (commonly the dissociation constant of the complex between target and ligand, obtained from inhibition or displacement) worked out at 0.41 ± 0.01 µM.
On to `O=C(O)c1ccc(OCCn2ccnc2)cc1` [4-[2-(1H-imidazol-1-yl)-ethoxy]benzoic acid], for which the affinity corresponds to a Ki of 3.4 ± 0.1 µM.
For `CCCC1C(=O)OCC1Cc1cncn1C` (centres unmarked) [4-[(1-methyl-1H-imidazol-5-yl)methyl]-3-propyldihydrofuran-2-(3H)-one], the Ki came to 6.7 ± 0.3 µM.
Still for that read-out and setting: the figure for `O=C(Nc1ccccc1C(=O)NCCCn1ccnc1)c1ccc([N+](=O)[O-])o1` [5-nitro-2-[2-([{3-(1H-imidazol-1-yl-)propyl}amino]carbonyl)phenyl]furamide] is 6.6 ± 0.4 µM.
Regarding `c1ccn2cncc2c1` [Imidazo[1.5a]pyridine], the Ki is 35.6 ± 0.5 µM.
The same measure, in the same setting: the figure for `COC(=O)[C@@H](NC(=O)[C@@H](N)CCC(=O)Nn1ccnc1)C(C)C` [Methyl (2S)-2-{[(28)-2-amino-5-(1H-imidazol-1-ylamino)-5-oxopentanoyl]amino}-3-methylbutanoate] is 164 ± 4 µM.
The same measure, in the same setting: next, `S=C(NCCn1ccnc1)Nc1ccc(Cl)cc1` [N-(4-chlorophenyl)-N′-[2-(1H-imidazol-1-yl)ethyl]thiourea]: 1.65 ± 0.07 µM; `O=C(C(=O)n1ccnc1)n1ccnc1` [oxalic acid dilmidazolidide]: 78 ± 2 µM.

The same series, now with this note: QC inhibition by L-histamine and its two biological metabolites (Table 4).
`Cn1cnc(CCN)c1` [1-methyl-4-(β-aminoethyl)-imidazole]: the “Ki value (mM)” value is given as “n.i”.

The same series, now with this note: human QC catalyzed reaction; 30° C. in 0.05 M Tris-HCl pH 8.0, containing 5 mM EDTA.
`O=S(=O)(n1ccnc1)n1ccnc1` [1,1′-sulfonyldiimidazole]: the “Ki-value (mM)” value is reported as “no inhibition”.
The same measure, in the same setting: next, `c1ccc(-n2ccnc2)cc1` [1-phenylimidazole]: “no inhibition”; `Clc1nc2ccccc2[nH]1` [2-chioro-1H-benzimidazole]: “no inhibition”; `N#Cc1nc[nH]c1C#N` [4,5-dicyanoimidazole]: “no inhibition”.
Still for that read-out and setting: next, `c1ccc(-c2nc[nH]c2-c2ccccc2)cc1` [4,5-diphenyl-imidazole]: “no inhibition”.

The same series, now with this note: read-out: Ki value; QC inhibition by L-histamine and its two biological metabolites (Table 4).
In the case of `Cn1cncc1CCN` [3-methyl-4-(β-aminoethyl)-imidazole], the Ki was 120 ± 4 µM.
On the same count and under the same terms, the figure for `NCCc1c[nH]cn1` [L-histamine] is 850 ± 40 µM.

The series is the same for the next values; noted with them: read-out: Ki-value; human QC catalyzed reaction; 30° C. in 0.05 M Tris-HCl pH 8.0, containing 5 mM EDTA.
Regarding `O=C(Cn1ccnc1)c1ccccc1` [1-(2-oxo-2-phenyl-ethyl)-imidazole], the Ki was determined as 184 ± 5 µM.
Same read-out and setting: next, `NCCCn1ccnc1` [1-(3-aminopropyl)-imidazole]: 410 ± 10 µM.
Consider `C=Cn1ccnc1` [1-vinylimidazole], for which the Ki came to 49 ± 2 µM.
For `Nc1nc2ccccc2[nH]1` [2-aminobenzimidazole], the Ki is 1800 ± 100 µM.
Regarding `CCc1nc(C)c[nH]1` [2-ethyl-4-methyl-imidazole], the Ki amounted to 580 ± 40 µM.
With `Cc1nc2ccccc2[nH]1` [2-methyl-benzylimidazole], the Ki stood at 165 ± 4 µM.
For `NC(=O)c1[nH]cnc1N` [4-amino-imidazole-5-carbonic acid amide], the Ki was 15500 ± 500 µM.
For `O=Cc1c[nH]cn1` [4-imidazole-carboxaldehyde], the Ki came to 7600 ± 700 µM.
With `Cc1nc[nH]c1CO` [5-hydroxymethyl-4-methyl-imidazole], the Ki is 129 ± 5 µM.
As to `NCCc1c[nH]cn1` [L-histamine], the Ki worked out at 850 ± 40 µM.
Still for that read-out and setting: the figure for `NC(=O)[C@@H](N)Cc1c[nH]cn1` [L-histidinamide] is 560 ± 40 µM.
On the same count and under the same terms, next, `N[C@@H](Cc1c[nH]cn1)C(=O)O` [L-histidine]: 4400 ± 200 µM; `N[C@H](CO)Cc1c[nH]cn1` [L-histidinol]: 1530 ± 120 µM.
Still for that read-out and setting: the figure for `C[Si](C)(C)n1ccnc1` [N-(trimethylsilyl)-imidazole] is 167 ± 7 µM.
For the molecule `CC(=O)n1ccnc1` [N-acetylimidazole], the Ki was 107 ± 3 µM.
On the same count and under the same terms, next, `O=C(c1ccccc1)n1ccnc1` [N-benzoylimidazole]: 174 ± 7 µM.
Regarding `COC(=O)c1c[nH]cn1` [imidazole-4-carbonic acid methylester], the Ki was determined as 14500 ± 600 µM.
